In patent US12215140B2, “Method of stabilizing protein contained in specimen and solution for stabilizing protein contained in specimen” (EIKEN KAGAKU KABUSHIKI KAISHA, priority 2018, dated 2025):

System: hemoglobin-haptoglobin complex
Assay: Stability of hemoglobin (as hemoglobin-haptoglobin complex) in samples preserved at 37° C. in preservation solution containing 1 unit/L haptoglobin, Hb measured by latex agglutination method (Examples 1 to 7)
Design: species or system human
Settings: 37° C.
Summary of the method: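 Hemoglobin (~300 µg/L) in 0.5% fecal suspension, or without feces, held at 37 °C for 0–21 days in 40 mmol/L HEPES pH 6.8, 0.1% BSA, 0.1% NaN3, 1 unit/L haptoglobin, with 0–100 mmol/L phenylboronic acid ± sugars. Hb quantified by latex agglutination with anti-human Hb rabbit polyclonal; recovery (%) relative to day 0.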

[1] = Feces 1, sugar 50 mmol/L + phenylboronic acid 15 mmol/L, 0 days
[2] = Feces 1, sugar 50 mmol/L + phenylboronic acid 15 mmol/L, 7 days
[3] = Feces 1, sugar 50 mmol/L + phenylboronic acid 15 mmol/L, 14 days
[4] = Feces 1, sugar 50 mmol/L + phenylboronic acid 15 mmol/L, 21 days
[5] = Feces 1, sugar 100 mmol/L + phenylboronic acid 0.5 mmol/L, 0 days
[6] = Feces 1, sugar 100 mmol/L + phenylboronic acid 0.5 mmol/L, 7 days
[7] = Feces 1, sugar 100 mmol/L + phenylboronic acid 0.5 mmol/L, 14 days
[8] = Feces 1, sugar 100 mmol/L + phenylboronic acid 15 mmol/L, 0 days
[9] = Feces 1, sugar 100 mmol/L + phenylboronic acid 15 mmol/L, 0 days (Table 7)
[10] = Feces 1, sugar 100 mmol/L + phenylboronic acid 15 mmol/L, 7 days
[11] = Feces 1, sugar 100 mmol/L + phenylboronic acid 15 mmol/L, 7 days (Table 7)
[12] = Feces 1, sugar 100 mmol/L + phenylboronic acid 15 mmol/L, 14 days
[13] = Feces 1, sugar 100 mmol/L + phenylboronic acid 15 mmol/L, 14 days (Table 7)
[14] = Feces 1, sugar 100 mmol/L + phenylboronic acid 15 mmol/L, 21 days
[15] = Feces 1, sugar 100 mmol/L + phenylboronic acid 50 mmol/L, 0 days
[16] = Feces 1, sugar 100 mmol/L + phenylboronic acid 50 mmol/L, 7 days
[17] = Feces 1, sugar 100 mmol/L + phenylboronic acid 50 mmol/L, 14 days
[18] = Feces 1, sugar 100 mmol/L, no phenylboronic acid, 0 days
[19] = Feces 1, sugar 100 mmol/L, no phenylboronic acid, 7 days
[20] = Feces 1, sugar 100 mmol/L, no phenylboronic acid, 14 days
[21] = Feces 1, sugar 100 mmol/L, no phenylboronic acid, 21 days
[22] = Feces 2, sugar 50 mmol/L + phenylboronic acid 15 mmol/L, 0 days
[23] = Feces 2, sugar 50 mmol/L + phenylboronic acid 15 mmol/L, 7 days
[24] = Feces 2, sugar 50 mmol/L + phenylboronic acid 15 mmol/L, 14 days
[25] = Feces 2, sugar 50 mmol/L + phenylboronic acid 15 mmol/L, 21 days
[26] = Feces 2, sugar 100 mmol/L + phenylboronic acid 0.5 mmol/L, 0 days
[27] = Feces 2, sugar 100 mmol/L + phenylboronic acid 0.5 mmol/L, 7 days
[28] = Feces 2, sugar 100 mmol/L + phenylboronic acid 0.5 mmol/L, 14 days
[29] = Feces 2, sugar 100 mmol/L + phenylboronic acid 15 mmol/L, 0 days
[30] = Feces 2, sugar 100 mmol/L + phenylboronic acid 15 mmol/L, 0 days (Table 7)
[31] = Feces 2, sugar 100 mmol/L + phenylboronic acid 15 mmol/L, 7 days
[32] = Feces 2, sugar 100 mmol/L + phenylboronic acid 15 mmol/L, 7 days (Table 7)
[33] = Feces 2, sugar 100 mmol/L + phenylboronic acid 15 mmol/L, 14 days
[34] = Feces 2, sugar 100 mmol/L + phenylboronic acid 15 mmol/L, 14 days (Table 7)
[35] = Feces 2, sugar 100 mmol/L + phenylboronic acid 15 mmol/L, 21 days
[36] = Feces 2, sugar 100 mmol/L + phenylboronic acid 50 mmol/L, 0 days
[37] = Feces 2, sugar 100 mmol/L + phenylboronic acid 50 mmol/L, 7 days
[38] = Feces 2, sugar 100 mmol/L + phenylboronic acid 50 mmol/L, 14 days
[39] = Feces 2, sugar 100 mmol/L, no phenylboronic acid, 0 days
[40] = Feces 2, sugar 100 mmol/L, no phenylboronic acid, 7 days
[41] = Feces 2, sugar 100 mmol/L, no phenylboronic acid, 14 days
[42] = Feces 2, sugar 100 mmol/L, no phenylboronic acid, 21 days
[43] = Feces 3, sugar 50 mmol/L + phenylboronic acid 15 mmol/L, 0 days

Compound: OC[C@@H](O)[C@@H](O)[C@H](O)[C@@H](O)CO [Sorbitol, sorbitol]
- Hb concentration [1]: 291 µg/L
- Recovery ratio with respect to Hb concentration after 0 days [1]: 100%
- Hb concentration [2]: 300 µg/L
- Recovery ratio with respect to Hb concentration after 0 days [2]: 103%
- Hb concentration [3]: 300 µg/L
- Recovery ratio with respect to Hb concentration after 0 days [3]: 103%
- Hb concentration [4]: 296 µg/L
- Recovery ratio with respect to Hb concentration after 0 days [4]: 102%
- Hb concentration [5]: 310 µg/L
- Recovery ratio with respect to Hb after 0 days [5]: 100%
- Hb concentration [6]: 206 µg/L
- Recovery ratio with respect to Hb after 0 days [6]: 66%
- Hb concentration [7]: 178 µg/L
- Recovery ratio with respect to Hb after 0 days [7]: 57%
- Hb concentration [8]: 287 µg/L
- Recovery ratio with respect to Hb concentration after 0 days [8]: 100%
- Hb concentration [9]: 301 µg/L
- Recovery ratio with respect to Hb after 0 days [9]: 100%
- Hb concentration [10]: 292 µg/L
- Recovery ratio with respect to Hb concentration after 0 days [10]: 102%
- Hb concentration [11]: 297 µg/L
- Recovery ratio with respect to Hb after 0 days [11]: 99%
- Hb concentration [12]: 294 µg/L
- Recovery ratio with respect to Hb concentration after 0 days [12]: 102%
- Hb concentration [13]: 295 µg/L
- Recovery ratio with respect to Hb after 0 days [13]: 98%
- Hb concentration [14]: 290 µg/L
- Recovery ratio with respect to Hb concentration after 0 days [14]: 101%
- Hb concentration [15]: 281 µg/L
- Recovery ratio with respect to Hb after 0 days [15]: 100%
- Hb concentration [16]: 274 µg/L
- Recovery ratio with respect to Hb after 0 days [16]: 98%
- Hb concentration [17]: 275 µg/L
- Recovery ratio with respect to Hb after 0 days [17]: 98%
- Hb concentration [18]: 283 µg/L
- Recovery ratio with respect to Hb concentration after 0 days [18]: 100%
- Hb concentration [19]: 143 µg/L
- Recovery ratio with respect to Hb concentration after 0 days [19]: 51%
- Hb concentration [20]: 102 µg/L
- Recovery ratio with respect to Hb concentration after 0 days [20]: 36%
- Hb concentration [21]: 97 µg/L
- Recovery ratio with respect to Hb concentration after 0 days [21]: 34%
- Hb concentration [22]: 281 µg/L
- Recovery ratio with respect to Hb concentration after 0 days [22]: 100%
- Hb concentration [23]: 280 µg/L
- Recovery ratio with respect to Hb concentration after 0 days [23]: 100%
- Hb concentration [24]: 252 µg/L
- Recovery ratio with respect to Hb concentration after 0 days [24]: 90%
- Hb concentration [25]: 222 µg/L
- Recovery ratio with respect to Hb concentration after 0 days [25]: 79%
- Hb concentration [26]: 301 µg/L
- Recovery ratio with respect to Hb after 0 days [26]: 100%
- Hb concentration [27]: 173 µg/L
- Recovery ratio with respect to Hb after 0 days [27]: 57%
- Hb concentration [28]: 154 µg/L
- Recovery ratio with respect to Hb after 0 days [28]: 51%
- Hb concentration [29]: 274 µg/L
- Recovery ratio with respect to Hb concentration after 0 days [29]: 100%
- Hb concentration [30]: 299 µg/L
- Recovery ratio with respect to Hb after 0 days [30]: 100%
- Hb concentration [31]: 276 µg/L
- Recovery ratio with respect to Hb concentration after 0 days [31]: 101%
- Hb concentration [32]: 300 µg/L
- Recovery ratio with respect to Hb after 0 days [32]: 100%
- Hb concentration [33]: 246 µg/L
- Recovery ratio with respect to Hb concentration after 0 days [33]: 90%
- Hb concentration [34]: 298 µg/L
- Recovery ratio with respect to Hb after 0 days [34]: 100%
- Hb concentration [35]: 219 µg/L
- Recovery ratio with respect to Hb concentration after 0 days [35]: 80%
- Hb concentration [36]: 275 µg/L
- Recovery ratio with respect to Hb after 0 days [36]: 100%
- Hb concentration [37]: 279 µg/L
- Recovery ratio with respect to Hb after 0 days [37]: 101%
- Hb concentration [38]: 284 µg/L
- Recovery ratio with respect to Hb after 0 days [38]: 103%
- Hb concentration [39]: 277 µg/L
- Recovery ratio with respect to Hb concentration after 0 days [39]: 100%
- Hb concentration [40]: 113 µg/L
- Recovery ratio with respect to Hb concentration after 0 days [40]: 41%
- Hb concentration [41]: 77 µg/L
- Recovery ratio with respect to Hb concentration after 0 days [41]: 28%
- Hb concentration [42]: 51 µg/L
- Recovery ratio with respect to Hb concentration after 0 days [42]: 18%
- Hb concentration [43]: 283 µg/L
- Recovery ratio with respect to Hb concentration after 0 days [43]: 100%
